Measurements as given in patent US9447100B2, “Substituted pyrazolo[1,5-A] pyrimidines as calcium receptor modulating agents” (Takeda Pharmaceutical Company Limited, priority 2002, dated 2016).

Compound COc1ccccc1C1CC(C(F)(F)F)n2ncc(C(=O)O)c2N1 (stereo not drawn) [Example 30, 5-(2-methoxyphenyl)-7-(trifluoromethyl)-4,5,6,7-tetrahydropyrazolo[1,5-a]pyrimidine-3-carboxylic acid] has a melting point of 189 to 190 °C.
Work on O=C(O)c1cnn2c1NC(c1ccccc1Cl)CC2C(F)(F)F (stereo not drawn) [Example 32, 5-(2-chlorophenyl)-7-(trifluoromethyl)-4,5,6,7-tetrahydropyrazolo[1,5-a]pyrimidine-3-carboxylic acid] yielded a melting point of 177 to 179 °C.
For O=C(O)c1cnn2c1NC(c1cccc(Cl)c1)CC2C(F)(F)F (stereo not drawn) [Example 33, 5-(3-chlorophenyl)-7-(trifluoromethyl)-4,5,6,7-tetrahydropyrazolo[1,5-a]pyrimidine-3-carboxylic acid], the melting point was 194 to 195 °C.
With CCC1(CC)CC(c2ccccc2)Nc2c(C(=O)O)cnn21 (stereo not drawn) [Example 37, 7,7-diethyl-5-phenyl-4,5,6,7-tetrahydropyrazolo[1,5-a]pyrimidine-3-carboxylic acid] the melting point was 158 to 160 °C.
O=C(O)c1cnn2c1NC(c1ccccc1)C1CCCCC12 (stereo not drawn) [Example 39, 5-phenyl-4,5,5a,6,7,8,9,9a-octahydropyrazolo[1,5-a]quinazoline-3-carboxylic acid] showed a melting point of 158 to 160 °C.
In the case of Cc1nn2c(c1C(=O)NC13CC4CC(CC(C4)C1)C3)NC(c1ccccc1)CC2C(F)(F)F (stereo not drawn) [Example 42], the melting point is reported as 162 to 163 °C.
O=C(NC1C2CC3CC(C2)CC1C3)c1cnn2c1NC(c1ccc3ccccc3c1)CC2C(F)(F)F (stereo not drawn) [Example 90, N-(2-adamantyl)-5-(2-naphthyl)-7-(trifluoromethyl)-4,5,6,7-tetrahydropyrazolo[1,5-a]pyrimidine-3-carboxamide] gave a melting point of 280 to 282 °C.
In the case of CC(NC(=O)c1cnn2c1NC(c1ccc3ccccc3c1)CC2C(F)(F)F)C1C2CC3CC(C2)CC1C3 (stereo not drawn) [Example 91, N-(1-(2-adamantyl)ethyl)-5-(2-naphthyl)-7-(trifluoromethyl)-4,5,6,7-tetrahydropyrazolo[1,5-a]pyrimidine-3-carboxamide], the melting point is reported as 94 to 95 °C.
O=C(NC12CC3CC(CC(C3)C1)C2)c1cnn2c1NC(c1ccccc1)CC21CCCC1 (stereo not drawn) [Example 183, N-(1-adamantyl)-5′-phenyl-5′,6′-dihydro-4′H-spiro[cyclopentane-1,7′-pyrazolo[1,5-a]pyrimidine]-3′-carboxamide] showed a melting point of 259 to 261 °C.
Work on CCC(CC)(NC(=O)c1cnn2c1NC(c1ccccc1)CC2(CC)CC)c1ccc(C(F)(F)F)cc1 (stereo not drawn) [Example 185, 7,7-diethyl-N-(1-ethyl-1-(4-(trifluoromethyl)phenyl)propyl)-5-phenyl-4,5,6,7-tetrahydropyrazolo[1,5-a]pyrimidine-3-carboxamide] yielded a melting point of 174 to 175 °C.
Work on CCC(CC)(NC(=O)c1cnn2c1NC(c1ccccc1)CC21CCCC1)c1ccc(C(F)(F)F)cc1 (stereo not drawn) [Example 191, N-(1-ethyl-1-(4-(trifluoromethyl)phenyl)propyl)-5′-phenyl-5′,6′-dihydro-4′H-spiro[cyclopentane-1,7′-pyrazolo[1,5-a]pyrimidine]-3′-carboxamide] yielded a melting point of 205 to 207 °C.
With CCC(CC)(NC(=O)c1cnn2c1NC(c1ccccc1)CC21CCCCC1)c1ccc(C(F)(F)F)cc1 (stereo not drawn) [Example 200, N-(1-ethyl-1-(4-(trifluoromethyl)phenyl)propyl)-5′-phenyl-5′,6′-dihydro-4′H-spiro[cyclohexane-1,7′-pyrazolo[1,5-a]pyrimidine]-3′-carboxamide] the melting point was 274 to 275 °C.
Compound CCC(CC)(NC(=O)c1cnn2c1NC(c1ccccc1)C1CCCCC12)c1ccc(C(F)(F)F)cc1 (stereo not drawn) [Example 201, N-(1-ethyl-1-(4-(trifluoromethyl)phenyl)propyl)-5-phenyl-4,5,5a,6,7,8,9,9a-octahydropyrazolo[1,5-a]quinazoline-3-carboxamide] has a melting point of 213 to 214 °C.
COc1ccc(C2CC(C(F)(F)F)n3ncc(C(=O)NC45CC6CC(CC(C6)C4)C5)c3N2)cc1 (stereo not drawn) [Example 202, N-(1-adamantyl)-5-(4-methoxyphenyl)-7-(trifluoromethyl)-4,5,6,7-tetrahydropyrazolo[1,5-a]pyrimidine-3-carboxamide] gave a melting point of 241 to 243 °C.
For O=C(NC12CC3CC(CC(C3)C1)C2)c1cnn2c1NC(c1ccco1)CC2C(F)(F)F (stereo not drawn) [Example 270, N-(1-adamantyl)-5-(2-furyl)-7-(trifluoromethyl)-4,5,6,7-tetrahydropyrazolo[1,5-a]pyrimidine-3-carboxamide], the melting point was 230 to 231 °C.
O=C(NCc1ccc(Oc2ccc(F)cc2)cc1)c1cnn2c1NC(c1ccccc1)CC2C(F)(F)F (stereo not drawn) [Example 271, N-(4-(4-fluorophenoxy)benzyl)-5-phenyl-7-(trifluoromethyl)-4,5,6,7-tetrahydropyrazolo[1,5-a]pyrimidine-3-carboxamide] gave a melting point of 169 to 172 °C.
For CC(C)(Cc1ccc2ccccc2c1)NC(=O)c1cnn2c1NC(c1ccccc1)CC2C(F)(F)F (stereo not drawn) [Example 272, N-(1,1-dimethyl-2-(2-naphthyl)ethyl)-5-phenyl-7-(trifluoromethyl)-4,5,6,7-tetrahydropyrazolo[1,5-a]pyrimidine-3-carboxamide], the melting point was 187 to 188 °C.
Work on O=C(c1cnn2c1NC(c1ccccc1)CC2C(F)(F)F)N1CCN(C(c2ccccc2)c2ccccc2)CC1 (stereo not drawn) [Example 274, 3-((4-benzhydryl-1-piperazinyl)carbonyl)-5-phenyl-7-(trifluoromethyl)-4,5,6,7-tetrahydropyrazolo[1,5-a]pyrimidine] yielded a melting point of 181 to 182 °C.
O=C(c1cnn2c1NC(c1ccccc1)CC2C(F)(F)F)N1CCc2nn(-c3ccc(Cl)cc3)cc2C1 (stereo not drawn) [Example 275, 2-(4-chlorophenyl)-5-((5-phenyl-7-(trifluoromethyl)-4,5,6,7-tetrahydropyrazolo[1,5-a]pyrimidin-3-yl)carbonyl)-4,5,6,7-tetrahydro-2H-pyrazolo[4,3-c]pyridine] showed a melting point of 183 to 184 °C.
With Cc1ccc(-n2cc3c(n2)CCN(C(=O)c2cnn4c2NC(c2ccccc2)CC4C(F)(F)F)C3)cc1 (stereo not drawn) [Example 276, 2-(4-methylphenyl)-5-((5-phenyl-7-(trifluoromethyl)-4,5,6,7-tetrahydropyrazolo[1,5-a]pyrimidin-3-yl)carbonyl)-4,5,6,7-tetrahydro-2H-pyrazolo[4,3-c]pyridine] the melting point was 167 to 168 °C.
In the case of O=C(NCc1ccc(-c2csnn2)cc1)c1cnn2c1NC(c1ccccc1)CC2C(F)(F)F (stereo not drawn) [Example 278, 5-phenyl-N-(4-(1,2,3-thiadiazol-4-yl)benzyl)-7-(trifluoromethyl)-4,5,6,7-tetrahydropyrazolo[1,5-a]pyrimidine-3-carboxamide], the melting point is reported as 205 to 206 °C.
Compound COc1ccccc1C1CC(C(F)(F)F)n2ncc(C(=O)NC34CC5CC(CC(C5)C3)C4)c2N1 (stereo not drawn) [Example 279, N-(1-adamantyl)-5-(2-methoxyphenyl)-7-(trifluoromethyl)-4,5,6,7-tetrahydropyrazolo[1,5-a]pyrimidine-3-carboxamide] has a melting point of 238 to 239 °C.
Work on COc1cccc(C2CC(C(F)(F)F)n3ncc(C(=O)NC45CC6CC(CC(C6)C4)C5)c3N2)c1 (stereo not drawn) [Example 280, N-(1-adamantyl)-5-(3-methoxyphenyl)-7-(trifluoromethyl)-4,5,6,7-tetrahydropyrazolo[1,5-a]pyrimidine-3-carboxamide] yielded a melting point of 211 to 212 °C.
With O=C(NC12CC3CC(CC(C3)C1)C2)c1cnn2c1NC(c1ccccc1Cl)CC2C(F)(F)F (stereo not drawn) [Example 281, N-(1-adamantyl)-5-(2-chlorophenyl)-7-(trifluoromethyl)-4,5,6,7-tetrahydropyrazolo[1,5-a]pyrimidine-3-carboxamide] the melting point was 256 to 257 °C.
Work on O=C(NC12CC3CC(CC(C3)C1)C2)c1cnn2c1NC(c1cccc(Cl)c1)CC2C(F)(F)F (stereo not drawn) [Example 282, N-(1-adamantyl)-5-(3-chlorophenyl)-7-(trifluoromethyl)-4,5,6,7-tetrahydropyrazolo[1,5-a]pyrimidine-3-carboxamide] yielded a melting point of 246 to 247 °C.
Work on CC(C)(CC1Cc2ccccc2C1)NC(=O)c1cnn2c1NC(c1ccccc1)CC2C(F)(F)F (stereo not drawn) [Example 292, N-(2-(2,3-dihydro-1H-inden-2-yl)-1,1-dimethylethyl)-5-phenyl-7-(trifluoromethyl)-4,5,6,7-tetrahydropyrazolo[1,5-a]pyrimidine-3-carboxamide] yielded a melting point of 221 to 222 °C.
CC(C)(NC(=O)c1cnn2c1NC(c1ccccc1)CC2C(F)(F)F)c1cccc2ccccc12 (stereo not drawn) [Example 368, N-(1-methyl-1-(1-naphthyl)ethyl)-5-phenyl-7-(trifluoromethyl)-4,5,6,7-tetrahydropyrazolo[1,5-a]pyrimidine-3-carboxamide] gave a melting point of 221 to 222 °C.
Compound O=C(NC1(C(=O)N2CCOCC2)CCCCC1)c1cnn2c1N[C@H](c1ccccc1)C[C@@H]2C(F)(F)F [Example 370] has a melting point of 290 to 291 °C.
In the case of CC1(C)CC(c2ccccc2)Nc2c(C(=O)NC34CC5CC(CC(C5)C3)C4)cnn21 (stereo not drawn) [Example 374, N-(1-adamantyl)-7,7-dimethyl-5-phenyl-4,5,6,7-tetrahydropyrazolo[1,5-a]pyrimidine-3-carboxamide], the melting point is reported as 235 to 236 °C.
Work on CCC(CC)(NC(=O)c1cnn2c1NC(c1ccccc1)CC2C(F)(F)F)c1ccccc1 (stereo not drawn) [Example 396, N-(1-ethyl-1-phenylpropyl)-5-phenyl-7-(trifluoromethyl)-4,5,6,7-tetrahydropyrazolo[1,5-a]pyrimidine-3-carboxamide] yielded a melting point of 165 to 166 °C.
Compound CCC(CC)(NC(=O)c1cnn2c1NC(c1ccccc1)CC2C(F)(F)F)c1ccc(Br)cc1 (stereo not drawn) [Example 397, N-(1-(4-bromophenyl)-1-ethylpropyl)-5-phenyl-7-(trifluoromethyl)-4,5,6,7-tetrahydropyrazolo[1,5-a]pyrimidine-3-carboxamide] has a melting point of 180 to 181 °C.
In the case of CCC(CC)(NC(=O)c1cnn2c1NC(c1ccccc1)CC2C(F)(F)F)c1cccc(Br)c1 (stereo not drawn) [Example 398, N-(1-(3-bromophenyl)-1-ethylpropyl)-5-phenyl-7-(trifluoromethyl)-4,5,6,7-tetrahydropyrazolo[1,5-a]pyrimidine-3-carboxamide], the melting point is reported as 167 to 168 °C.
CCC(NC(=O)c1cnn2c1NC(c1ccccc1)CC2C(F)(F)F)c1ccccc1C (stereo not drawn) [Example 399, N-(1-(2-methylphenyl)propyl)-5-phenyl-7-(trifluoromethyl)-4,5,6,7-tetrahydropyrazolo[1,5-a]pyrimidine-3-carboxamide] gave a melting point of 225 to 226 °C.
